Experimental data as given in patent US10798941B2, “Microbiocidal oxadiazole derivatives” (SYNGENTA PARTICIPATIONS AG, priority 2016, dated 2020).

Tests used:
[1] = test system: Puccinia recondita f. Sp. Tritici; assay: Puccinia recondita f. sp. tritici / wheat / leaf disc preventative (brown rust); format: in vivo; conditions: foliar, 168 h, 200 ppm in the applied formulation, wheat leaf segments cv. Kanzler, preventative, inoculated 1 day after application, assessed 7 to 9 days after application, vs untreated, read-out: disease control
How it was run: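 Wheat cv. Kanzler leaf segments on agar were sprayed with formulated compound in water, then inoculated with spores 1 day later. Incubated at 19° C, 75% rh, 12 h light/12 h dark; percent disease control versus untreated scored 7 to 9 days after application.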

[2] = test system: Glomerella Lagenarium (Colletotrichum Lagenarium); assay: Glomerella lagenarium (Colletotrichum lagenarium) liquid culture / cucumber / preventative (anthracnose); format: cell-based; conditions: Colletotrichum orbiculare; 20 ppm in the applied formulation; liquid culture in PDB, 24° C., inhibition of growth measured photometrically 3 to 4 days after application, vs untreated; read-out: disease control
How it was run: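 Conidia from cryogenic storage were mixed into potato dextrose broth. This was added to compound diluted from DMSO into 0.025% Tween20, tested at 20 ppm. Plates were incubated in the dark at 24 °C and 96% relative humidity, and growth was read photometrically after 2–7 days as % activity versus untreated check.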

[3] = test system: Puccinia recondita f. Sp. Tritici; assay: Puccinia recondita f. sp. tritici / wheat / leaf disc curative (brown rust); format: in vivo; conditions: foliar, 144 h, 200 ppm in the applied formulation, wheat leaf segments cv. Kanzler, applied 1 day after inoculation, assessed 6 to 8 days after application, vs untreated, read-out: disease control
How it was run: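 Read-out is percent disease control relative to untreated segments, assessed 6 to 8 days after treatment once check disease is adequate. Kanzler wheat leaf segments on agar receive fungal spores, then test compound (DMSO stock diluted in 0.025% Tween20 or water) 1 day later, under 19° C and 75% relative humidity.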

Phakopsora pachyrhizi = Phakopsora pachyrhizi / soybean / leaf disc preventative (Asian soybean rust); format: in vivo; conditions: foliar, 288 h, 200 ppm in the applied formulation, soybean leaf disks, inoculated one day after application, assessed 12 to 14 days after application, vs untreated, read-out: disease control
How it was run: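 Read-out is percent disease control relative to untreated check discs, assessed once untreated discs show adequate disease, 12 to 14 days after application. Compounds, tested at 200 ppm in the applied formulation, are sprayed onto soybean leaf discs one day before inoculation with a spore suspension.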

Row | melting point | SMILES | pest or weed control at 200 ppm [1] | inhibition of growth at 20 ppm [2] | pest or weed control at 200 ppm [3] | pest or weed control at 200 ppm (Phakopsora pachyrhizi)
1 | 102 to 112 °C | CON(C)C(=O)c1cnn(Cc2ccc(-c3noc(C(F)(F)F)n3)cc2)c1 [Compound 1.260, N-methoxy-N-methyl-1-[[4-[5-(trifluoromethyl)-1,2,4-oxadiazol-3-yl]phenyl]methyl]pyrazole-4-carboxamide] |  |  |  | 
2 | 81 to 91 °C | CC(C)(C)OC(=O)c1cnn(Cc2ccc(-c3noc(C(F)(F)F)n3)cc2)c1 [Compound 1.262, ~{tert}-butyl 1-[[4-[5-(trifluoromethyl)-1,2,4-oxadiazol-3-yl]phenyl]methyl]pyrazole-4-carboxylate] | ≥ 80% | ≥ 80% |  | 
3 | 105 to 115 °C | CCCOC(=O)c1cnn(Cc2ccc(-c3noc(C(F)(F)F)n3)cc2)c1 [Compound 1.264, propyl 1-[[4-[5-(trifluoromethyl)-1,2,4-oxadiazol-3-yl]phenyl]methyl]pyrazole-4-carboxylate] |  |  |  | 
4 | 88 to 98 °C | CON=Cc1cnn(Cc2ccc(-c3noc(C(F)(F)F)n3)cc2)c1 [Compound 1.285] |  |  |  | 
5 | 166 to 176 °C | CCNC(=O)c1cnn(Cc2ccc(-c3noc(C(F)(F)F)n3)cc2)c1 [Compound 1.267, ~{N}-ethyl-1-[[4-[5-(trifluoromethyl)-1,2,4-oxadiazol-3-yl]phenyl]methyl]pyrazole-4-carboxamide] |  |  |  | 
6 | 145 to 147 °C | CCOC(=O)c1cnn(CC(F)c2ccc(-c3noc(C(F)(F)F)n3)cc2)c1 (centres unmarked) [Compound 1.311, ethyl 1-[2-fluoro-2-[4-[5-(trifluoromethyl)-1,2,4-oxadiazol-3-yl]phenyl]ethyl]pyrazole-4-carboxylate] |  |  |  | 
7 | 233 to 235 °C | O=C(Nc1ccc(Cl)cc1)c1cn(Cc2ccc(-c3noc(C(F)(F)F)n3)cc2)nn1 [Compound 1.282, N-(4-chlorophenyl)-1-[[4-[5-(trifluoromethyl)-1,2,4-oxadiazol-3-yl]phenyl]methyl]triazole-4-carboxamide] | ≥ 80% |  |  | 
8 | 86 to 96 °C | CCN(CC)C(=O)c1cnn(Cc2ccc(-c3noc(C(F)(F)F)n3)cc2)c1 [Compound 1.259, N,N-diethyl-1-[[4-[5-(trifluoromethyl)-1,2,4-oxadiazol-3-yl]phenyl]methyl]pyrazole-4-carboxamide] |  |  |  | 
9 | 122 to 129 °C | COC(=O)c1cnn(Cc2ccc(-c3noc(C(F)(F)F)n3)cc2)c1 [Compound 1.248, methyl 1-[[4-[5-(trifluoromethyl)-1,2,4-oxadiazol-3-yl]phenyl]methyl]pyrazole-4-carboxylate] |  |  |  | 
10 | 128 to 138 °C | CONC(=O)c1cnn(Cc2ccc(-c3noc(C(F)(F)F)n3)cc2)c1 [Compound 1.266, ~{N}-methoxy-1-[[4-[5-(trifluoromethyl)-1,2,4-oxadiazol-3-yl]phenyl]methyl]pyrazole-4-carboxamide] |  |  |  | 
11 | 131 to 135 °C | CCOC(=O)c1cnn(Cc2ccc(-c3noc(C(F)(F)F)n3)c(F)c2)c1 [Compound 1.252, ethyl 1-[[3-fluoro-4-[5-(trifluoromethyl)-1,2,4-oxadiazol-3-yl]phenyl]methyl]pyrazole-4-carboxylate] |  |  |  | 
12 | 105 to 108 °C | N#Cc1ncn(Cc2ccc(-c3noc(C(F)(F)F)n3)nc2)n1 [Compound 1.257, 1-[[6-[5-(trifluoromethyl)-1,2,4-oxadiazol-3-yl]-3-pyridyl]methyl]-1,2,4-triazole-3-carbonitrile] |  | ≥ 80% |  | 

Second part, the compound before the results:

Row | SMILES | melting point | pest or weed control at 200 ppm [1] | inhibition of growth at 20 ppm [2] | pest or weed control at 200 ppm [3] | pest or weed control at 200 ppm (Phakopsora pachyrhizi)
13 | CNC(=O)c1cnn(Cc2ccc(-c3noc(C(F)(F)F)n3)cc2)c1 [Compound 1.150, N-methyl-1-[[4-[5-(trifluoromethyl)-1,2,4-oxadiazol-3-yl]phenyl]methyl]pyrazole-4-carboxamide] | 156 to 161 °C |  |  |  | 
14 | CCc1cccc(CC)c1-n1ncc(-c2cn(Cc3ccc(-c4noc(C(F)(F)F)n4)cc3)nn2)c1C [Compound 1.31, 3-[4-[[4-[1-(2,6-diethylphenyl)-5-methyl-pyrazol-4-yl]triazol-1-yl]methyl]phenyl]-5-(trifluoromethyl)-1,2,4-oxadiazole] | 157.6 to 161.9 °C |  |  |  | 
15 | CN(C)C(=O)c1cnn(Cc2ccc(-c3noc(C(F)(F)F)n3)cc2)c1 [Compound 1.149, N,N-dimethyl-1-[[4-[5-(trifluoromethyl)-1,2,4-oxadiazol-3-yl]phenyl]methyl]pyrazole-4-carboxamide] | 124 to 129 °C |  |  |  | 
16 | FC(F)(F)c1ncn(Cc2ccc(-c3noc(C(F)(F)F)n3)cc2)n1 [Compound 1.39] | 68.2 to 70.1 °C |  |  |  | 
17 | N#Cc1ncnn1Cc1ccc(-c2noc(C(F)(F)F)n2)cc1 [Compound 1.41, 2-[[4-[5-(trifluoromethyl)-1,2,4-oxadiazol-3-yl]phenyl]methyl]-1,2,4-triazole-3-carbonitrile] | 120 to 124 °C |  |  |  | 
18 | FC(F)(F)c1nc(-c2ccc(Cn3ccnc3Br)cc2)no1 [Compound 1.49, 3-[4-[(2-bromoimidazol-1-yl)methyl]phenyl]-5-(trifluoromethyl)-1,2,4-oxadiazole] |  | ≥ 80% | ≥ 80% | ≥ 80% | ≥ 80%
19 | FC(F)(F)c1nc(-c2ccc(Cn3cnc(Br)c3)nc2)no1 [Compound 1.136, 3-[6-[(4-bromoimidazol-1-yl)methyl]-3-pyridyl]-5-(trifluoromethyl)-1,2,4-oxadiazole] |  | ≥ 80% | ≥ 80% | ≥ 80% | ≥ 80%
20 | COC(=O)c1ncn(Cc2ccc(-c3noc(C(F)(F)F)n3)cc2)c1C(=O)OC [Compound 1.43, dimethyl 1-[[4-[5-(trifluoromethyl)-1,2,4-oxadiazol-3-yl]phenyl]methyl]imidazole-4,5-dicarboxylate] |  | ≥ 80% | ≥ 80% | ≥ 80% | ≥ 80%
21 | CCSc1ncn(Cc2ccc(-c3noc(C(F)(F)F)n3)cc2)n1 [Compound 1.208, 3-[4-[(3-ethylsulfanyl-1,2,4-triazol-1-yl)methyl]phenyl]-5-(trifluoromethyl)-1,2,4-oxadiazole] |  | ≥ 80% | ≥ 80% | ≥ 80% | ≥ 80%
22 | COc1ccc(C(C)c2ccc(-c3noc(C(F)(F)F)n3)cc2)cn1 (centres unmarked) [Compound 1.42, 3-[4-[1-(6-methoxy-3-pyridyl)ethyl]phenyl]-5-(trifluoromethyl)-1,2,4-oxadiazole] |  | ≥ 80% | ≥ 80% | ≥ 80% | ≥ 80%
23 | FC(F)(F)c1nc(-c2ccc(Cn3cccc4nnnc3-4)cc2)no1 [Compound 1.244, 3-[4-(triazolo[4,5-b]pyridin-4-ylmethyl)phenyl]-5-(trifluoromethyl)-1,2,4-oxadiazole] |  | ≥ 80% | ≥ 80% | ≥ 80% | ≥ 80%
24 | FC(F)Sc1nc(-c2ccc(Cl)cc2)cn1Cc1ccc(-c2noc(C(F)(F)F)n2)cc1 [Compound 1.174, 3-[4-[[4-(4-chlorophenyl)-2-(difluoromethyl-sulfanyl)imidazol-1-yl]methyl]phenyl]-5-(trifluoromethyl)-1,2,4-oxadiazole] |  | ≥ 80% | ≥ 80% | ≥ 80% | ≥ 80%
25 | FC(F)(F)c1nc(-c2ccc(Cn3cnnc3SCc3ccccc3)cc2)no1 [Compound 1.213, 3-[4-[(3-benzylsulfanyl-1,2,4-triazol-4-yl)methyl]phenyl]-5-(trifluoromethyl)-1,2,4-oxadiazole] |  | ≥ 80% | ≥ 80% | ≥ 80% | ≥ 80%
26 | FC(F)(F)c1nc(-c2ccc(Cn3ccc(Cl)n3)cc2)no1 [Compound 1.243, 3-[4-[(3-chloropyrazol-1-yl)methyl]phenyl]-5-(trifluoromethyl)-1,2,4-oxadiazole] |  | ≥ 80% | ≥ 80% | ≥ 80% | ≥ 80%
27 | CC(C)OC(=O)c1cnn(Cc2ccc(-c3noc(C(F)(F)F)n3)cc2)c1 [Compound 1.263, isopropyl 1-[[4-[5-(trifluoromethyl)-1,2,4-oxadiazol-3-yl]phenyl]methyl]pyrazole-4-carboxylate] |  | ≥ 80% | ≥ 80% | ≥ 80% | ≥ 80%
28 | N#Cc1ncnn1Cc1ccc(-c2noc(C(F)(F)F)n2)c(F)c1 [Compound 1.256, 2-[[3-fluoro-4-[5-(trifluoromethyl)-1,2,4-oxadiazol-3-yl]phenyl]methyl]-1,2,4-triazole-3-carbonitrile] |  | ≥ 80% | ≥ 80% | ≥ 80% | ≥ 80%
